Experiment [1] in a line: Blood sugar level of a patient after application of the topical mixture to the skin. The class given is in vivo, human. The settings on record: presence of L-Histidine in the mixture. The text has this: The present invention is best practiced by application of the trivalent Chromium composition at least twice daily. Preferably the application will be made before sleep and early in the morning ideally before exercise. Although the present invention may be applied to the entire body it is recommended it be applied to the legs and groin area where easy access to a large number of blood vessels can be achieved. Additionally, the legs and groin area contained some of the most exercised muscles in the human body. An alternative carrier base can be achieved through infusion of the trivalent Chromium and other elements into a bar of soap so as to achieve even distribution over the entire body. FIGS. 1 and 2 and the charts below show the blood sugar level of a patient utilizing the present invention in accordance with the formulation set above. The blood sugar level can be seen to drop dramatically after application of the present invention to the surface of the skin.

For experiment [2], the system named is excess Iron within the cells. Briefly: Tests of trivalent Chromium on excess Iron within the cells of humans. The experiment is classed as in vivo. Particulars: absorbed into the bloodstream and delivered to the individual cells of humans. From the text: Also included in the present invention is trivalent Chromium. As currently contemplated, the Chromium will be in the form of Chromium Picolinate, Chromium Polynicotinate, or Chromium Chloride. The essential element is trivalent Chromium. The choice of Chromium Picolinate, Chromium Polynicotinate, or Chromium Chloride has been made by the inventors because they are readily, commercially available in most health food stores, pharmacies, and other sources of dietary supplements. […] This is a desirable treatment for people suffering from Diabetes and there are currently studies, which indicate that “Iron Loading” can possibly be attached to the occurrence of cancer. A possible alternative or compliment to the Chromium of the present invention is Vanadium in the form of Vanadyl Sulfate. A combination of both Chromium and Vanadium compounds have been utilized in some tests with desirable results.

The source of these data is patent publication US20130344166A1, “TOPICAL MIXTURE AND METHOD FOR DERMAL APPLICATION TO REMOVE EXCESS IRON AND OTHER HEAVY METALS FROM CELLULAR TISSUE” (priority 2012, published 2013).

On to `N[C@@H](Cc1c[nH]cn1)C(=O)O` [L-Histidine], for which the “levels of blood sugar in patients” value in experiment [1] is listed as “beneficial to lowering the levels of blood sugar”.
For trivalent Chromium, the “levels of excess Iron within the cells” value in experiment [2] is on record as “reduces the levels of excess Iron within the cells”.
